Source: paper PMC7010361 (ACS chemical biology, 2019)

Biological target: BRD4 in HeLa cells (Homo sapiens, UniProt O60885)
Assay: Western blot analysis of BRD4 degradation
Format: cell-based
Conditions: HeLa cells treated 24 h with varying concentrations; GAPDH loading control

With `Cc1ncsc1-c1ccc(CNC(=O)[C@@H]2C[C@@H](O)CN2C(=O)[C@@H](NC(=O)COCCOCCOCCNC(=O)C[C@@H]2N=C(c3ccc(Cl)cc3)c3c(sc(C)c3C)-n3c(C)nnc32)C(C)(C)C)cc1` [MZ1] the “BRD4 degradation (western blot)” value was “dose dependent degradation of BRD4”.
